test system: TNFα secretion from LPS stimulated frozen Peripheral Blood Mononuclear Cells (PBMC); experiment: inhibition of TNFα secretion from LPS stimulated human PBMC (hPBMC assay); type: cell-based; details: LPS 1 μg/mL, overnight incubation, TNFα by HTRF
Description: Activity of the compounds was investigated using human peripheral blood mononuclear cells (hPBMC). This assay was designed to measure the inhibition of the TNFα secretion from LPS stimulated frozen Peripheral Blood Mononuclear Cells (PBMC) isolated from human blood. TNFα levels were measured using HTRF® Human TNFα kit (Cisbio #62TNFPEC) which is a rapid and quantitative sandwich immunoassay based on TR-FRET technology.
Frozen PBMC were quickly thawed, resuspended in culture medium (RPMI 10% inactivated FBS) and viable cells were seeded in 96-well plates (50,000 cells/well). […] After overnight incubation at 37° C., 10 μL of cell supernatant were mixed with 5 μL of each tagged anti-TNFα specific antibody as recommended by the supplier. After 2 hours of incubation at room temperature, the HTRF® signals were measured using a microplate reader (wavelengths: excitation=337 nm, first emission=620 nm, second emission=665 nm).

`Cc1cc(COc2ccc(S(=O)(=O)NC3(CC(=O)NO)CN(C(=O)C4CCCC4)C3)cc2)c2ccccc2n1` [Example 4h, 2-(1-(cyclopentanecarbonyl)-3-((4-((2-methylquinolin-4-yl)methoxy)phenyl)sulfonamido)azetidin-3-yl)-N-hydroxyacetamide] and `Cc1cc(COc2ccc(S(=O)(=O)NC3(CC(=O)NO)CN(C(=O)CC4CCC4)C3)cc2)c2ccccc2n1` [Example 13, 2-(1-(2-cyclobutylacetyl)-3-((4-((2-methylquinolin-4-yl)methoxy)phenyl)sulfonamido)azetidin-3-yl)-N-hydroxyacetamide] cannot be ordered by IC50: < 0.05 µM for the first, < 0.05 µM for the second.

First: Cc1cc(COc2ccc(S(=O)(=O)NC3(CC(=O)NO)CN(C(=O)N4CCN(C)CC4)C3)cc2)c2cccc(C)c2n1 [Example 31, 2-(3-((4-((2,8-dimethylquinolin-4-yl)methoxy)phenyl)sulfonamido)-1-(4-methylpiperazine-1-carbonyl)azetidin-3-yl)-N-hydroxyacetamide]
Second: Cc1cc(COc2ccc(S(=O)(=O)NC3(CC(=O)NO)CN(C(=O)N4CCN(C(C)C)CC4)C3)cc2)c2ccccc2n1 [Example 28a, N-hydroxy-2-(1-(4-isopropylpiperazine-1-carbonyl)-3-((4-((2-methylquinolin-4-yl)methoxy)phenyl)sulfonamido)azetidin-3-yl)acetamide]
The IC50 of the first is higher: 0.05 to 0.1 µM for the first, < 0.05 µM for the second.

`Cc1cc(COc2ccc(S(=O)(=O)NC3(C(=O)NO)CN(C(=O)C4CCC4)C3)cc2)c2ccccc2n1` [Example 7e, 1-(cyclobutanecarbonyl)-N-hydroxy-3-((4-((2-methylquinolin-4-yl)methoxy)phenyl)sulfonamido)azetidine-3-carboxamide] and `CO[C@H]1C[C@H](C(=O)N2CC(NS(=O)(=O)c3ccc(OCc4cc(C)nc5ccccc45)cc3)(C(=O)NO)C2)C1` [Example 26a, N-hydroxy-1-((1r,3r)-3-methoxycyclobutane-1-carbonyl)-3-((4-((2-methylquinolin-4-yl)methoxy)phenyl)sulfonamido)azetidine-3-carboxamide] cannot be ordered by IC50: < 0.05 µM for the first, < 0.05 µM for the second.

`Cc1cc(COc2ccc(S(=O)(=O)NC3(CC(=O)NO)CN(C(=O)CC(C)C)C3)cc2)c2ccccc2n1` [Example 4a, N-hydroxy-2-(1-(3-methylbutanoyl)-3-((4-((2-methylquinolin-4-yl)methoxy)phenyl)sulfonamido)azetidin-3-yl)acetamide] and `Cc1cc(COc2ccc(S(=O)(=O)NC3(CC(=O)NO)CN(C(=O)C(C)C)C3)cc2)c2ccccc2n1` [Example 4b, N-hydroxy-2-(1-isobutyryl-3-((4-((2-methylquinolin-4-yl)methoxy)phenyl)sulfonamido)azetidin-3-yl)acetamide] cannot be ordered by IC50: < 0.05 µM for the first, < 0.05 µM for the second.

`CCCC(=O)N1CC(CC(=O)NO)(NS(=O)(=O)c2ccc(OCc3cc(C)nc4ccccc34)cc2)C1` [Example 4e, 2-(1-butyryl-3-((4-((2-methylquinolin-4-yl)methoxy)phenyl)sulfonamido)azetidin-3-yl)-N-hydroxyacetamide] and `CC(=O)N1CC(CC(=O)NO)(NS(=O)(=O)c2ccc(OCc3cc(C)nc4ccccc34)cc2)C1` [Example 1, 2-(1-acetyl-3-((4-((2-methylquinolin-4-yl)methoxy)phenyl)sulfonamido)azetidin-3-yl)-N-hydroxyacetamide] cannot be ordered by IC50: < 0.05 µM for the first, < 0.05 µM for the second.

`Cc1cc(COc2ccc(S(=O)(=O)NC3(C(=O)NO)CN(C(=O)N4CCN(C)CC4)C3)cc2)c2ccccc2n1` [Example 16c, N-hydroxy-1-(4-methylpiperazine-1-carbonyl)-3-((4-((2-methylquinolin-4-yl)methoxy)phenyl)sulfonamido)azetidine-3-carboxamide] and `CC(=O)N1CC(NS(=O)(=O)c2ccc(OCc3cc(C)nc4ccccc34)cc2)(C(=O)NO)C1` [Example 8, 1-acetyl-N-hydroxy-3-((4-((2-methylquinolin-4-yl)methoxy)phenyl)sulfonamido) azetidine-3-carboxamide] cannot be ordered by IC50: < 0.05 µM for the first, < 0.05 µM for the second.

`Cc1cc(COc2ccc(S(=O)(=O)NC3(C(=O)NO)CN(C(=O)C(C)(C)C)C3)cc2)c2ccccc2n1` [Example 7a, N-hydroxy-3-((4-((2-methylquinolin-4-yl)methoxy)phenyl)sulfonamido)-1-pivaloylazetidine-3-carboxamide] and `Cc1cc(COc2ccc(S(=O)(=O)NC3(C(=O)NO)CN(C(=O)CC(C)(C)C)C3)cc2)c2ccccc2n1` [Example 15, 1-(3,3-dimethylbutanoyl)-N-hydroxy-3-((4-((2-methylquinolin-4-yl)methoxy)phenyl)sulfonamido)azetidine-3-carboxamide] fall in the same range of IC50: 0.05 to 0.1 µM for the first, 0.05 to 0.1 µM for the second.

First: Cc1cc(COc2ccc(S(=O)(=O)N(C)C3(C(=O)NO)CN(C(=O)C(C)C)C3)cc2)c2cccc(F)c2n1 [Example 30, 3-((4-((8-fluoro-2-methylquinolin-4-yl)methoxy)-N-methylphenyl)sulfonamido)-N-hydroxy-1-isobutyrylazetidine-3-carboxamide]
Second: Cc1cc(COc2ccc(S(=O)(=O)NC3(C(=O)NO)CN(C(=O)C(C)C)C3)cc2)c2cccc(C)c2n1 [Example 27, 3-((4-((2,8-dimethylquinolin-4-yl)methoxy)phenyl)sulfonamido)-N-hydroxy-1-isobutyrylazetidine-3-carboxamide]
The IC50 of the first is lower: < 0.05 µM for the first, 0.1 to 0.5 µM for the second. The first is the more potent here.

`CCC(=O)N1CC(NS(=O)(=O)c2ccc(OCc3cc(C)nc4ccccc34)cc2)(C(=O)NO)C1` [Example 7g, N-hydroxy-3-((4-((2-methylquinolin-4-yl)methoxy)phenyl)sulfonamido)-1-propionylazetidine-3-carboxamide] and `CCCC(=O)N1CC(NS(=O)(=O)c2ccc(OCc3cc(C)nc4ccccc34)cc2)(C(=O)NO)C1` [Example 7h, 1-butyryl-N-hydroxy-3-((4-((2-methylquinolin-4-yl)methoxy)phenyl)sulfonamido)azetidine-3-carboxamide] cannot be ordered by IC50: < 0.05 µM for the first, < 0.05 µM for the second.

`COC(=O)N1CC(CC(=O)NO)(NS(=O)(=O)c2ccc(OCc3cc(C)nc4ccccc34)cc2)C1` [Example 5b, methyl 3-(2-(hydroxyamino)-2-oxoethyl)-3-((4-((2-methylquinolin-4-yl)methoxy)phenyl)sulfonamido)azetidine-1-carboxylate] and `Cc1cc(COc2ccc(S(=O)(=O)NC3(CC(=O)NO)CN(C(=O)OC(C)(C)C)C3)cc2)c2ccccc2n1` [Example 2, Tert-butyl 3-(2-(hydroxyamino)-2-oxoethyl)-3-((4-((2-methylquinolin-4-yl)methoxy)phenyl)sulfonamido)azetidine-1-carboxylate] cannot be ordered by IC50: < 0.05 µM for the first, < 0.05 µM for the second.

`CCN(C1(C(=O)NO)CN(C(=O)C(C)C)C1)S(=O)(=O)c1ccc(OCc2cc(C)nc3ccccc23)cc1` [Example 21a, 3-((N-ethyl-4-((2-methylquinolin-4-yl)methoxy)phenyl)sulfonamido)-N-hydroxy-1-isobutyrylazetidine-3-carboxamide] and `Cc1cc(COc2ccc(S(=O)(=O)N(C)C3(C(=O)NO)CN(C(=O)CC(C)C)C3)cc2)c2ccccc2n1` [Example 19d, N-hydroxy-3-((N-methyl-4-((2-methylquinolin-4-yl)methoxy)phenyl)sulfonamido)-1-(3-methylbutanoyl)azetidine-3-carboxamide] cannot be ordered by IC50: < 0.05 µM for the first, < 0.05 µM for the second.

First: Cc1cc(COc2ccc(S(=O)(=O)NC3(C(=O)NO)CN(C(=O)CC(C)C)C3)cc2)c2cccc(F)c2n1 [Example 29, 3-((4-((8-fluoro-2-methylquinolin-4-yl)methoxy)phenyl)sulfonamido)-N-hydroxy-1-(3-methylbutanoyl)azetidine-3-carboxamide]
Second: Cc1cc(COc2ccc(S(=O)(=O)NC3(C(=O)NO)CN(C(=O)CC(C)C)C3)cc2)c2ccccc2n1 [Example 7c, N-hydroxy-1-(3-methylbutanoyl)-3-((4-((2-methylquinolin-4-yl)methoxy)phenyl)sulfonamido)azetidine-3-carboxamide]
The IC50 of the first is higher: 0.1 to 0.5 µM for the first, < 0.05 µM for the second.

Compared with `CC(=O)N1CC(CC(=O)NO)(NS(=O)(=O)c2ccc(OCc3cc(C)nc4c(F)cccc34)cc2)C1` [Example 6, 2-(1-acetyl-3-((4-((8-fluoro-2-methylquinolin-4-yl)methoxy)phenyl)sulfonamido)azetidin-3-yl)-N-hydroxyacetamide], `C=CCOC(=O)N1CC(CC(=O)NO)(NS(=O)(=O)c2ccc(OCc3cc(C)nc4ccccc34)cc2)C1` [Example 5c, allyl 3-(2-(hydroxyamino)-2-oxoethyl)-3-((4-((2-methylquinolin-4-yl)methoxy)phenyl)sulfonamido)azetidine-1-carboxylate] is lower in IC50: 0.05 to 0.1 µM for the first, < 0.05 µM for the second. The second is the more potent here.

First: CCC(CC)C(=O)N1CC(NS(=O)(=O)c2ccc(OCc3cc(C)nc4ccccc34)cc2)(C(=O)NO)C1 [Example 7f, 1-(2-ethylbutanoyl)-N-hydroxy-3-((4-((2-methylquinolin-4-yl)methoxy)phenyl)sulfonamido)azetidine-3-carboxamide]
Second: CC[C@H](C)C(=O)N1CC(NS(=O)(=O)c2ccc(OCc3cc(C)nc4ccccc34)cc2)(C(=O)NO)C1 [Example 26d, (S)-N-hydroxy-1-(2-methylbutanoyl)-3-((4-((2-methylquinolin-4-yl)methoxy)phenyl)sulfonamido)azetidine-3-carboxamide]
The IC50 of the first is higher: 0.05 to 0.1 µM for the first, < 0.05 µM for the second. The second is the more potent here.

First: C=CCOC(=O)N1CC(NS(=O)(=O)c2ccc(OCc3cc(C)nc4ccccc34)cc2)(C(=O)NO)C1 [Example 17, Allyl 3-(hydroxycarbamoyl)-3-((4-((2-methylquinolin-4-yl)methoxy)phenyl)sulfonamido)azetidine-1-carboxylate]
Second: CCC(CC)C(=O)N1CC(C(=O)NO)(N(C)S(=O)(=O)c2ccc(OCc3cc(C)nc4ccccc34)cc2)C1 [Example 19b, 1-(2-ethylbutanoyl)-N-hydroxy-3-((N-methyl-4-((2-methylquinolin-4-yl)methoxy)phenyl)sulfonamido)azetidine-3-carboxamide]
The IC50 of the first is lower: < 0.05 µM for the first, 0.05 to 0.1 µM for the second.
